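Five compound concentrations were applied to cells in 96-well plates for 48 hours; endpoints were derived by simple linear interpolation of the resulting dose-response curve. TGI is the concentration that stops growth completely.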
What was measured:
Experiment in all cases: DTP human tumour cell line panel, 48 h
SF-268 CNS = tested on: SF-268 CNS
KM12 colon = tested on: KM12 colon
OVCAR-4 ovarian = tested on: OVCAR-4 ovarian
SK-MEL-2 melanoma = tested on: SK-MEL-2 melanoma
786-0 renal = tested on: 786-0 renal
CAKI-1 renal = tested on: CAKI-1 renal
COLO 205 colon = tested on: COLO 205 colon
HOP-18 NSCLC = tested on: HOP-18 NSCLC
HT29 colon = tested on: HT29 colon
OVCAR-3 ovarian = tested on: OVCAR-3 ovarian
SK-OV-3 ovarian = tested on: SK-OV-3 ovarian
MOLT-4 leukemia = tested on: MOLT-4 leukemia
M14 melanoma = tested on: M14 melanoma
OVCAR-8 ovarian = tested on: OVCAR-8 ovarian
SF-295 CNS = tested on: SF-295 CNS
U251 CNS = tested on: U251 CNS
SK-MEL-28 melanoma = tested on: SK-MEL-28 melanoma
HOP-62 NSCLC = tested on: HOP-62 NSCLC
MALME-3M melanoma = tested on: MALME-3M melanoma
EKVX NSCLC = tested on: EKVX NSCLC
KM20L2 colon = tested on: KM20L2 colon
UO-31 renal = tested on: UO-31 renal
SF-539 CNS = tested on: SF-539 CNS
A549 NSCLC = tested on: A549 NSCLC
RXF 393 renal = tested on: RXF 393 renal
NCI-H23 lung = tested on: NCI-H23 lung
HCT-116 colon = tested on: HCT-116 colon
SNB-19 CNS = tested on: SNB-19 CNS
HCC-2998 colon = tested on: HCC-2998 colon
DMS 114 small cell lung = tested on: DMS 114 small cell lung
OVCAR-5 ovarian = tested on: OVCAR-5 ovarian
K-562 leukemia = tested on: K-562 leukemia
RPMI-8226 leukemia = tested on: RPMI-8226 leukemia
SNB-78 CNS = tested on: SNB-78 CNS
M19-MEL melanoma = tested on: M19-MEL melanoma
SR leukemia = tested on: SR leukemia
UACC-62 melanoma = tested on: UACC-62 melanoma
TK-10 renal = tested on: TK-10 renal
IGROV1 ovarian = tested on: IGROV1 ovarian
ACHN renal = tested on: ACHN renal
DU-145 prostate = tested on: DU-145 prostate
MDA-N = tested on: MDA-N
HL-60(TB) leukemia = tested on: HL-60(TB) leukemia
NCI/ADR-RES ovarian = tested on: NCI/ADR-RES ovarian
LOX IMVI melanoma = tested on: LOX IMVI melanoma
MDA-MB-435 = tested on: MDA-MB-435
A498 renal = tested on: A498 renal
NCI-H522 lung = tested on: NCI-H522 lung
SNB-75 CNS = tested on: SNB-75 CNS
HOP-92 NSCLC = tested on: HOP-92 NSCLC
HS 578T breast = tested on: HS 578T breast
NCI-H460 lung = tested on: NCI-H460 lung
HCT-15 colon = tested on: HCT-15 colon
MCF7 breast = tested on: MCF7 breast
T-47D breast = tested on: T-47D breast
SW-620 colon = tested on: SW-620 colon
SK-MEL-5 melanoma = tested on: SK-MEL-5 melanoma
CCRF-CEM leukemia = tested on: CCRF-CEM leukemia
SN12C renal = tested on: SN12C renal
PC-3 prostate = tested on: PC-3 prostate
BT-549 breast = tested on: BT-549 breast
UACC-257 melanoma = tested on: UACC-257 melanoma
MDA-MB-231 breast = tested on: MDA-MB-231 breast
NCI-H226 lung = tested on: NCI-H226 lung

## C/C(=N\NC(N)=S)c1ccc(C2CCCCC2)cc1
SF-268 CNS
  TGI: > 100 µM
KM12 colon
  TGI: > 100 µM
OVCAR-4 ovarian
  TGI: 38.4 µM
SK-MEL-2 melanoma
  TGI: 32.8 µM
786-0 renal
  TGI: 31.7 µM
CAKI-1 renal
  TGI: 64.6 µM
COLO 205 colon
  TGI: 26.1 µM
HOP-18 NSCLC
  TGI: > 100 µM
HT29 colon
  TGI: 34.5 µM
OVCAR-3 ovarian
  TGI: 30.5 µM
SK-OV-3 ovarian
  TGI: 75.9 µM
MOLT-4 leukemia
  TGI: 35.7 µM
M14 melanoma
  TGI: 22.7 µM
OVCAR-8 ovarian
  TGI: 36.8 µM
SF-295 CNS
  TGI: 21 µM
U251 CNS
  TGI: 39.9 µM
SK-MEL-28 melanoma
  TGI: 33.7 µM
HOP-62 NSCLC
  TGI: 73.6 µM
MALME-3M melanoma
  TGI: 37.6 µM
EKVX NSCLC
  TGI: > 100 µM
KM20L2 colon
  TGI: 30.1 µM
UO-31 renal
  TGI: 41.8 µM
SF-539 CNS
  TGI: 38 µM
A549 NSCLC
  TGI: > 100 µM
RXF 393 renal
  TGI: 27.6 µM
NCI-H23 lung
  TGI: 56.3 µM
HCT-116 colon
  TGI: 44.6 µM
SNB-19 CNS
  TGI: > 100 µM
HCC-2998 colon
  TGI: 42 µM
DMS 114 small cell lung
  TGI: 29.9 µM
OVCAR-5 ovarian
  TGI: 35.1 µM
K-562 leukemia
  TGI: 39.2 µM
RPMI-8226 leukemia
  TGI: > 100 µM
SNB-78 CNS
  TGI: 91.1 µM
M19-MEL melanoma
  TGI: > 100 µM
SR leukemia
  TGI: > 100 µM
UACC-62 melanoma
  TGI: 32.2 µM
TK-10 renal
  TGI: 80.3 µM
IGROV1 ovarian
  TGI: 62.1 µM

## COc1ccccc1NC(=S)N/N=C/c1cccc(C)n1
SF-268 CNS
  TGI: > 100 µM
KM12 colon
  TGI: > 100 µM
OVCAR-4 ovarian
  TGI: > 100 µM
SK-MEL-2 melanoma
  TGI: > 100 µM
ACHN renal
  TGI: 25.6 µM
DU-145 prostate
  TGI: > 100 µM
MDA-N
  TGI: > 100 µM
786-0 renal
  TGI: 96.9 µM
CAKI-1 renal
  TGI: 74.7 µM
COLO 205 colon
  TGI: > 100 µM
HT29 colon
  TGI: > 100 µM
OVCAR-3 ovarian
  TGI: > 100 µM
SK-OV-3 ovarian
  TGI: > 44.4 µM
MOLT-4 leukemia
  TGI: > 100 µM
M14 melanoma
  TGI: 9.43 µM
OVCAR-8 ovarian
  TGI: > 52.3 µM
HL-60(TB) leukemia
  TGI: > 29.8 µM
NCI/ADR-RES ovarian
  TGI: > 31.1 µM
SF-295 CNS
  TGI: > 100 µM
LOX IMVI melanoma
  TGI: > 100 µM
U251 CNS
  TGI: > 87.1 µM
SK-MEL-28 melanoma
  TGI: > 100 µM
HOP-62 NSCLC
  TGI: > 62.9 µM
MALME-3M melanoma
  TGI: > 81.2 µM
EKVX NSCLC
  TGI: > 100 µM
MDA-MB-435
  TGI: > 100 µM
UO-31 renal
  TGI: > 39.1 µM
A498 renal
  TGI: 69.7 µM
SF-539 CNS
  TGI: 28.1 µM
A549 NSCLC
  TGI: 86.9 µM
NCI-H522 lung
  TGI: > 54.8 µM
SNB-75 CNS
  TGI: 53.5 µM
HOP-92 NSCLC
  TGI: > 92.8 µM
HS 578T breast
  TGI: > 100 µM
NCI-H460 lung
  TGI: > 85.5 µM
HCT-15 colon
  TGI: > 100 µM
MCF7 breast
  TGI: > 100 µM
NCI-H23 lung
  TGI: > 100 µM
HCT-116 colon
  TGI: > 100 µM
T-47D breast
  TGI: > 100 µM
SW-620 colon
  TGI: > 100 µM
SK-MEL-5 melanoma
  TGI: 47.3 µM
SNB-19 CNS
  TGI: > 100 µM
CCRF-CEM leukemia
  TGI: > 100 µM
HCC-2998 colon
  TGI: > 100 µM
SN12C renal
  TGI: > 93.8 µM
OVCAR-5 ovarian
  TGI: > 100 µM
K-562 leukemia
  TGI: > 100 µM
PC-3 prostate
  TGI: > 100 µM
RPMI-8226 leukemia
  TGI: > 100 µM
SR leukemia
  TGI: 10.4 µM
UACC-62 melanoma
  TGI: 15.1 µM
BT-549 breast
  TGI: > 100 µM
TK-10 renal
  TGI: > 100 µM
UACC-257 melanoma
  TGI: > 100 µM
MDA-MB-231 breast
  TGI: > 100 µM
NCI-H226 lung
  TGI: 37.3 µM
IGROV1 ovarian
  TGI: > 95.8 µM

From PubChem BioAssay (NCI)
